Row | Compound | melting point
1 | Cc1nc(N2CCCCC2)c2[nH]c(C)c(Cc3ccccc3)c2n1.Cl (hydrate or solvate) | > 240 °C (dec.)
2 | CCc1nc(N2CCCCC2)c2[nH]c(-c3ccccc3)cc2n1.Cl (hydrate or solvate) [Example 68c, 2-Ethyl-6-phenyl-4-piperidylpyrrolo[3,2-d]pyrimidine Hydrochloride Monohydrate] | 286 to 288 °C (dec.)
3 | Cc1nc(N2CCCCC2)c2[nH]c(-c3cccc(Cl)c3)cc2n1.Cl (hydrate or solvate) [Example 70e, 6-(3-Chlorophenyl)-2-methyl-4-piperidylpyrrolo[3,2-d]pyrimidine Hydrochloride Monohydrate] | 244.5 to 246 °C (dec.)
4 | COc1ccc(-c2cc3nc(C)nc(N4CCCCC4)c3[nH]2)cc1.Cl (hydrate or solvate) [Example 71e, 4-Methoxy-1-(2-methyl-4-piperidylpyrrolo[4,5-d]pyrimidin-6-yl)benzene Hydrochloride Monohydrate] | 267.5 to 268 °C (dec.)
5 | Cc1nc(N2CCCCC2)c2[nH]c(-c3ccc(O)cc3)cc2n1.Cl (hydrate or solvate) [Example 72, 2-methyl-4-piperidyl-6-(4-hydroxyphenyl)pyrrolo[3,2-d]pyrimidine] | > 300 °C (dec.)
6 | Cc1nc(N2CCCCC2)c2[nH]c(-c3ccccn3)cc2n1.Cl (hydrate or solvate) [Example 77, 2-Methyl-4-piperidyl-6-(2-pyridyl)pyrrolo[3,2-d]pyrimidine Hydrochloride Hydrate] | > 280 °C
7 | Cc1nc(N2CCCCC2)c2[nH]c(C3CCCCC3)cc2n1.Cl (hydrate or solvate) [Example 80d, 6-Cyclohexyl-2-methyl-4-piperidylpyrrolo[3,2-d]pyrimidine Hydrochloride Hydrate] | > 280 °C
8 | Cc1nc(N2CCCCC2)c2[nH]c(C34C[C@H]5C[C@@H](C3)C[C@@H](C4)C5)cc2n1.Cl (hydrate or solvate) [Example 81d, 6-Adamantanyl-2-methyl-4-piperidylpyrrolo[3,2-d]pyrimidine Hydrochloride Monohydrate] | > 280 °C
9 | Cc1nc(N2CCCCC2)c2[nH]c(-c3cc4ccccc4o3)cc2n1.Cl (hydrate or solvate) [Example 85, 2-(2-Methyl-4-piperidylpyrrolo[4,5-d]pyrimidin-6-yl)benzo[b]furan Hydrochloride Monohydrate] | > 280 °C
10 | Cc1nc(N2CCCCC2)c2[nH]c(-c3ccccc3)c(C)c2n1.Cl (hydrate or solvate) [Example 90, 2,7-Dimethyl-6-phenyl-4-piperidylpyrrolo[3,2-d]pyrimidine Hydrochloride Monohydrate] | > 280 °C
11 | Cc1nc(N2CCCCC2)c2[nH]c(C(C)(C)C)cc2n1.Cl (hydrate or solvate) [Example 97, 6-(tert-Butyl)-2-methyl-4-piperidylpyrrolo[3,2-d]pyrimidine Hydrochloride Hydrate] | 256 to 258 °C
12 | Cc1nc(N2CCCCC2)c2[nH]c(-c3ccn(S(=O)(=O)c4ccccc4)c3)cc2n1.Cl (hydrate or solvate) [Example 101, 3-(2-Methyl-4-piperidylpyrrolo[4,5-d]pyrimidin-6-yl)-1-(phenylsulfonyl)pyrrole Hydrochloride Hydrate] | 183 to 185.5 °C
13 | Cc1nc(N2CCCCC2)c2[nH]c(-c3ccccc3F)cc2n1.Cl (hydrate or solvate) [Example 102, 6-(2-Fluorophenyl)-2-methyl-4-piperidylpyrrolo[3,2-d]pyrimidine Hydrochloride Monohydrate] | 287 to 289 °C
14 | Cc1nc(N2CCCCC2)c2[nH]c(-c3cccc(F)c3)cc2n1.Cl (hydrate or solvate) [Example 103, 6-(3-Fluorophenyl)-2-methyl-4-piperidylpyrrolo[3,2-d]pyrimidine Hydrochloride Monohydrate] | > 285 °C
15 | Cc1nc(N2CCCCC2)c2[nH]c(C)cc2n1.Cl (hydrate or solvate) [Example 104, 2,6-Dimethyl-4-piperidylpyrrolo[3,2-d]pyrimidine Hydrochloride Hydrate] | 244 to 245.5 °C
16 | Cc1nc(N2CCCCC2)c2[nH]c(-c3cccc(C(F)(F)F)c3)cc2n1.Cl (hydrate or solvate) [Example 107, 2-Methyl-4-piperidyl-6-[3-(trifluoromethyl)phenyl]pyrrolo[3,2-d]pyrimidine Hydrochloride Monohydrate] | 241 to 243 °C

The next lines start with the values.

Row | melting point | Compound
17 | 238 to 240 °C | Cc1nc(N2CCCCC2)c2[nH]c(-c3cc(C)oc3C)cc2n1.Cl (hydrate or solvate) [Example 108, 2,5-Dimethyl-3-(2-methyl-4-piperidylpyrrolo[4,5-d]pyrimidin-6-yl)furan Hydrochloride Monohydrate]
18 | 278 to 280 °C | Cc1nc(N2CCCCC2)c2[nH]c(-c3ccc(C(F)(F)F)cc3)cc2n1.Cl (hydrate or solvate) [Example 111, 2-Methyl-4-piperidyl-6-[4-(trifluoromethyl)phenyl]pyrrolo[3,2-d]pyrimidine Hydrochloride Hydrate]
19 | > 280 °C | Cc1nc(N2CCCCC2)c2[nH]c(-c3ccc4c(c3)OCO4)cc2n1.Cl (hydrate or solvate) [Example 114, 5-[2-Methyl-4-piperidylpyrrolo[4,5-d]pyrimidin-6-yl]-2H-benzo[d]1,3-dioxolane Hydrochloride Monohydrate]
20 | > 280 °C | Cc1nc(N2CCCCC2)c2[nH]c(-c3cc(F)c(F)c(F)c3)cc2n1.Cl (hydrate or solvate) [Example 116, 2-Methyl-4-piperidyl-6-(3,4,5-trifluorophenyl)pyrrolo[3,2-d]pyrimidine Hydrochloride Hydrate]
21 | 265 to 268 °C | Cc1nc(N2CCCCC2)c2[nH]c(-c3ccc(Cl)c(Cl)c3)cc2n1.Cl (hydrate or solvate) [Example 118, 6-(3,4-Dichlorophenyl)-2-methyl-4-piperidylpyrrolo[3,2-d]pyrimidine Hydrochloride Monohydrate]
22 | 262 to 264 °C | COc1ccc(-c2cc3nc(C)nc(N4CCCCC4)c3[nH]2)cc1F.Cl (hydrate or solvate) [Example 119, 2-Fluoro-1-methoxy-4-[2-methyl-4-piperidylpyrrolo[4,5-d]pyrimidin-6-yl]benzene Hydrochloride Hydrate]
23 | 243 to 245 °C | Cc1nc(N2CCCCC2)c2[nH]c(-c3ccc(F)c(F)c3)cc2n1.Cl (hydrate or solvate) [Example 121, 6-(3,4-Difluorophenyl)-2-methyl-4-piperidylpyrrolo[3,2-d]pyrimidine Hydrochloride Hydrate]
24 | 270 to 272 °C | Cc1nc(N2CCCCC2)c2[nH]c(-c3ccc(SC(F)(F)F)cc3)cc2n1.Cl (hydrate or solvate) [Example 123, Trifluoro[4-(2-methyl-4-piperidylpyrrolo[4,5-d]pyrimidin-6-yl)phenylthio]methane Hydrochloride Monohydrate]
25 | 198 to 201 °C | Cc1nc(N2CCCCC2)c2[nH]c(-c3ccc(C)c(C)c3)cc2n1.Cl (hydrate or solvate) [Example 124, 6-(3,4-Dimethylphenyl)-2-methyl-4-piperidylpyrrolo[3,2-d]pyrimidine Hydrochloride Hydrate]
26 | > 280 °C | Cc1nc(N2CCCCC2)c2[nH]c(-c3ccc4c(c3)OCCO4)cc2n1.Cl (hydrate or solvate) [Example 125, 6-(2-Methyl-4-piperidylpyrrolo[4,5-d]pyrimidin-6-yl)-2H,3H-benzo[e]1,4-dioxane Hydrochloride Monohydrate]
27 | 268 to 270 °C | COc1ccc(-c2cc3nc(C)nc(N4CCCCC4)c3[nH]2)cc1OC.Cl (hydrate or solvate) [Example 126, 1,2-Dimethoxy-4-(2-methyl-4-piperidylpyrrolo[4,5-d]pyrimidin-6-yl)benzene Hydrochloride Hydrate]
28 | > 280 °C | Cc1nc(N2CCCCC2)c2[nH]c(-c3ccc4c(c3)Cc3ccccc3-4)cc2n1.Cl (hydrate or solvate) [Example 127, 6-Fluoren-2-yl-2-methyl-4-piperidylpyrrolo[3,2-d]pyrimidine Hydrochloride Hydrate]
29 | 164 to 167 °C | Cc1nc(N2CCCCC2)c2[nH]c(-c3ccc4c(c3)CCC4)cc2n1.Cl (hydrate or solvate) [Example 130, 6-Indan-5-yl-2-methyl-4-piperidylpyrrolo[3,2-d]pyrimidine Hydrochloride Monohydrate]
30 | 170 to 172 °C | Cc1nc(N2CCCCC2)c2[nH]c(-c3ccc4c(c3)CCO4)cc2n1.Cl (hydrate or solvate) [Example 131, 5-[2-Methyl-4-piperidylpyrrolo[4,5-d]pyrimidin-6-yl]-2,3-dihydrobenzo[b]furan Hydrochloride Hydrate]
31 | > 280 °C | Cc1nc(N2CCCCC2)c2[nH]c(-c3ccc(F)cc3)c(C)c2n1.Cl (hydrate or solvate) [Example 134, 6-(4-Fluorophenyl)-2,7-dimethyl-4-piperidylpyrrolo[3,2-d]pyrimidine Hydrochloride Hydrate]
32 | > 280 °C | Cc1nc(N2CCCCC2)c2[nH]c(-c3ccc(O)cc3)c(C)c2n1.Cl (hydrate or solvate) [Example 137, 4-[2,7-Dimethyl-4-piperidylpyrrolo[4,5-d]pyrimidin-6-yl]phenol Hydrochloride Hydrate]
33 | 279 to 281 °C | Cc1nc(N2CCCCC2)c2[nH]c(-c3ccc(S(C)(=O)=O)cc3)cc2n1.Cl (hydrate or solvate) [Example 142, 1-[2-Methyl-4-piperidylpyrrolo[4,5-d]pyrimidin-6-yl]-4-(methylsulfonyl)benzene Hydrochloride Monohydrate]
34 | > 280 °C | Cc1nc(N2CCCCC2)c2[nH]c(-c3ccc4ccccc4c3)cc2n1.Cl (hydrate or solvate) [Example 160, 2-Methyl-6-(2-naphthyl)-4-piperidylpyrrolo[3,2-d]pyrimidine Hydrochloride Hydrate]
35 | 236 to 238 °C | Cc1nc(N2CCCCC2)c2[nH]c(CCc3ccccc3)cc2n1.Cl (hydrate or solvate) [Example 168, 2-Methyl-6-(2-phenylethyl)-4-piperidylpyrrolo[3,2-d]pyrimidine Hydrochloride Hydrate]

— patent publication US6583154B1, “Compounds and methods which modulate feeding behavior and related diseases” (Amgen Inc., priority 1998, dated 2003)
